{
  "source": "patent US10227357B2",
  "about": "“Compounds and methods for kinase modulation, and indications therefor” (Plexxikon Inc., priority 2012, dated 2019)",
  "data": [
    {"target": "T1, c-kit mutant D816V (Homo sapiens, UniProt P10721, D816V/DEL694-753)", "T1 construct": "residues 551-934, kinase insertion domain residues 694-753 deleted; 6x-histidine (N); made in house; host or cells: E. coli Arctic Express (DE3) RIL (Stratagene)", "T1 sequence (P10721 with tags, fused parts or gaps DEL694-753/D816V)": "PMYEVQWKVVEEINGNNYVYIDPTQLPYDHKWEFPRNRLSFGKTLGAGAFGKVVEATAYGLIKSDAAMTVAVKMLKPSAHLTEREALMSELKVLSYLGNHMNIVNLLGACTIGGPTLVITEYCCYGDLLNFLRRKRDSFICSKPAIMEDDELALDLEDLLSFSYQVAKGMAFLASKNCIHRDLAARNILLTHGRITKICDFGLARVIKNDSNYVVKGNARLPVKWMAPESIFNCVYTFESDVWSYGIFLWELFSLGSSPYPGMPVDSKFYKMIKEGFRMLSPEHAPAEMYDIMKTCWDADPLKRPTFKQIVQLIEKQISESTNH", "assay": "c-Kit mutant D816V biochemical assay, AlphaScreen", "settings": "c-kit D816V biochemical inhibitory activity; read-out: Biochemical activity (IC50 μM) Kit D816V", "procedure": "Compounds to be tested were dissolved in DMSO to a concentration of 20 mM. These were diluted 30 μl into 120 μl of DMSO (4 mM) and 1 μl was added to an assay plate. These were then serially diluted 1:3 (50 μl to 100 μl DMSO) for a total of 8 points. Plates were prepared such that each kinase reaction is 20 μl in 1× kinase buffer (25 mM HEPES, pH 7.2, 8 mM MgCl2, 2 mM MnCl2, 50 mM NaCl, 0.01% Brij, 1 mM DTT, 0.01% BSA), 5% DMSO and 10 μM ATP. […] After incubation of the kinase reaction for 30 minutes at room temperature, 5 μl of donor beads (Streptavidin coated beads (Perkin Elmer Life Science) final concentration 7.5 μg/ml) in stop buffer (25 mM Hepes pH 7.5, 100 mM EDTA, 0.01% BSA) was added, the sample was mixed and incubated for 20 minutes at room temperature before adding 5 μl of acceptor beads (PY20 coated beads (Perkin Elmer Life Science) final concentration 7.5 μg/ml) in stop buffer. The samples were incubated for 60 minutes at room temperature and the signal per well was read on EnVision reader. […] The signal vs. compound concentration was used to determine the IC50.\nCells were grown in Terrific Broth (TB) media to an OD600 of 0.6 at 37° C. at which temperature was reduced to 10° C., protein was induced with 1.0 mM IPTG for 18 hours and harvested by centrifugation at 8000×g for 20 minutes. Cells were re-suspended in 0.1M KPO4 pH 8.0, 250 mM NaCl, 10% Glycerol, 0.75% NP-40, 25 mM Imidazole, 5 mM BME with 0.2 mg/ml Lysosyme, 2.0 mM PMSF, 25 μg/ml DNAse I, incubated in ice for 30 minutes and lysed with a cell disruptor (MicroFluidics). The lysate was clarified by centrifugation at 20,000×g for 2 hours. The protein was captured with Talon resin (Clontech). Contaminating proteins were washed off with 25 mM Tris-HCl pH 8.3, 250 mM NaCl, 15% Glycerol, 1% Triton X-100, and protein eluted using 100 mM EDTA. The protein was further purified using Gel Filtration column 26/600 Superdex 200 (GE) in 50 mM Tris-HCl, pH 8.0, 250 mM NaCl, 15% Glycerol, 5 mM BME. The protein was aliquoted and flash-frozen in liquid Nitrogen.", "units": {"IC50": "µM"}, "values": [
      {"smiles": "COc1ccc(CNC(=O)N2CCN(c3ncnc4[nH]c(-c5ccc(F)cc5)cc34)CC2)cn1", "note": "[P-0129, 4-[6-(4-fluorophenyl)-7H-pyrrolo[2,3-d]pyrimidin-4-yl]-N-[(6-methoxy-3-pyridyl)methyl]piperazine-1-carboxamide]", "IC50": "0.0001 to 1"},
      {"smiles": "O=C(NCc1ccc(Cl)cc1)N1CCN(c2ncnc3[nH]c(C4CC4)cc23)CC1", "note": "[P-0138, N-[(4-chlorophenyl)methyl]-4-(6-cyclopropyl-7H-pyrrolo[2,3-d]pyrimidin-4-yl)piperazine-1-carboxamide]", "IC50": "0.0001 to 1"},
      {"smiles": "O=C(NCc1ccc(Cl)cc1)N1CCN(c2ncnc3[nH]c(Cl)cc23)CC1", "note": "[P-0139, N-[(4-chlorophenyl)methyl]-4-(6-chloro-7H-pyrrolo[2,3-d]pyrimidin-4-yl)piperazine-1-carboxamide]", "IC50": "1 to 10"},
      {"smiles": "COc1ncc(F)cc1CNC(=O)N1CCN(c2ncnc3[nH]c(-c4cccnc4)cc23)CC1", "note": "[P-0140, N-[(5-fluoro-2-methoxy-3-pyridyl)methyl]-4-[6-(3-pyridyl)-7H-pyrrolo[2,3-d]pyrimidin-4-yl]piperazine-1-carboxamide]", "IC50": "1 to 10"},
      {"smiles": "Cc1ccc(NS(=O)(=O)N2CCN(c3ncnc4[nH]c(-c5ccc(Cl)cc5)cc34)CC2)cc1", "note": "[P-0142, 4-[6-(4-chlorophenyl)-7H-pyrrolo[2,3-d]pyrimidin-4-yl]-N-(p-tolyl)piperazine-1-sulfonamide]", "IC50": "10 to 200"},
      {"smiles": "O=C(NC(=O)N1CCN(c2ncnc3[nH]c(-c4ccc(F)cc4)cc23)CC1)c1ccccc1", "note": "[P-0143, N-benzoyl-4-[6-(4-fluorophenyl)-7H-pyrrolo[2,3-d]pyrimidin-4-yl]piperazine-1-carboxamide]", "IC50": "1 to 10"},
      {"smiles": "COc1ccc([C@@H](C)NC(=O)N2CCN(c3ncnc4[nH]c(-c5ccc(F)cc5)cc34)CC2)cc1", "note": "[P-0145]", "IC50": "10 to 200"},
      {"smiles": "C[C@@H](NC(=O)N1CCN(c2ncnc3[nH]c(-c4ccc(F)cc4)cc23)CC1)c1ccc(F)cc1", "note": "[P-0146, N-[(1R)-1-(4-fluorophenyl)ethyl]-4-[6-(4-fluorophenyl)-7H-pyrrolo[2,3-d]pyrimidin-4-yl]piperazine-1-carboxamide]", "IC50": "10 to 200"},
      {"smiles": "C[C@@H](NC(=O)N1CCN(c2ncnc3[nH]c(-c4ccc(F)cc4)cc23)CC1)c1ccc(F)cc1", "note": "[P-0147, N-[(1R)-1-(4-fluorophenyl)ethyl]-4-[6-(4-fluorophenyl)-7H-pyrrolo[2,3-d]pyrimidin-4-yl]piperazine-1-carboxamide]", "IC50": "1 to 10"},
      {"smiles": "O=C(NC1CCCC1)N1CCN(c2ncnc3[nH]c(-c4ccc(F)cc4)cc23)CC1", "note": "[P-0148, N-cyclopentyl-4-[6-(4-fluorophenyl)-7H-pyrrolo[2,3-d]pyrimidin-4-yl]piperazine-1-carboxamide]", "IC50": "10 to 200"},
      {"smiles": "O=C(Nc1cccnc1)N1CCN(c2ncnc3[nH]ccc23)CC1", "note": "[P-0152, N-(3-pyridyl)-4-(7H-pyrrolo[2,3-d]pyrimidin-4-yl)piperazine-1-carboxamide]", "IC50": "0.0001 to 1"},
      {"smiles": "Cc1ccccc1C(=O)c1c[nH]c2ncnc(N3CCN(C(=O)NCc4ccc(F)cc4)CC3)c12", "note": "[P-0160, N-[(4-fluorophenyl)methyl]-4-[5-(2-methylbenzoyl)-7H-pyrrolo[2,3-d]pyrimidin-4-yl]piperazine-1-carboxamide]", "IC50": "1 to 10"},
      {"smiles": "O=C(NCCc1ccc(Cl)cc1)N1CCN(c2ncnc3[nH]c(-c4ccc(F)cc4)cc23)CC1", "note": "[P-0161, N-[2-(4-chlorophenyl)ethyl]-4-[6-(4-fluorophenyl)-7H-pyrrolo[2,3-d]pyrimidin-4-yl]piperazine-1-carboxamide]", "IC50": "0.0001 to 1"},
      {"smiles": "O=C(NCCc1ccccc1)N1CCN(c2ncnc3[nH]c(-c4ccc(F)cc4)cc23)CC1", "note": "[P-0162, 4-[6-(4-fluorophenyl)-7H-pyrrolo[2,3-d]pyrimidin-4-yl]-N-phenethyl-piperazine-1-carboxamide]", "IC50": "10 to 200"},
      {"smiles": "O=C(NCc1cccc(F)c1)N1CCN(c2ncnc3[nH]ccc23)CC1", "note": "[P-0163, N-[(3-fluorophenyl)methyl]-4-(7H-pyrrolo[2,3-d]pyrimidin-4-yl)piperazine-1-carboxamide]", "IC50": "10 to 200"},
      {"smiles": "O=C(NCCc1ccc(F)cc1)N1CCN(c2ncnc3[nH]ccc23)CC1", "note": "[P-0164, N-[2-(4-fluorophenyl)ethyl]-4-(7H-pyrrolo[2,3-d]pyrimidin-4-yl)piperazine-1-carboxamide]", "IC50": "10 to 200"},
      {"smiles": "O=C(NC(=O)N1CCN(c2ncnc3[nH]ccc23)CC1)c1ccccc1", "note": "[P-0174, N-benzoyl-4-(7H-pyrrolo[2,3-d]pyrimidin-4-yl)piperazine-1-carboxamide]", "IC50": "10 to 200"},
      {"smiles": "O=C(NCc1ccc(F)cc1)N1CCN(c2ncnc3[nH]cc(C4CC4)c23)CC1", "note": "[P-0179, 4-(5-cyclopropyl-7H-pyrrolo[2,3-d]pyrimidin-4-yl)-N-[(4-fluorophenyl)methyl]piperazine-1-carboxamide]", "IC50": "1 to 10"},
      {"smiles": "Cc1ccccc1C(=O)c1c[nH]c2ncnc(N3CCN(C(=O)OC(C)(C)C)CC3)c12", "note": "[P-0187, tert-butyl 4-[5-(2-methylbenzoyl)-7H-pyrrolo[2,3-d]pyrimidin-4-yl]piperazine-1-carboxylate]", "IC50": "0.0001 to 1"},
      {"smiles": "CC(C)(C)OC(=O)N1CCN(c2ncnc3[nH]c(C(=O)Nc4ccccc4)cc23)CC1", "note": "[P-0211, tert-butyl 4-[6-(phenylcarbamoyl)-7H-pyrrolo[2,3-d]pyrimidin-4-yl]piperazine-1-carboxylate]", "IC50": "0.0001 to 1"},
      {"smiles": "COc1cccc(NC(=O)N2CCN(c3ncnc4[nH]cc(-c5ccccc5)c34)CC2)c1", "note": "[P-0228, N-(3-methoxyphenyl)-4-(5-phenyl-7H-pyrrolo[2,3-d]pyrimidin-4-yl)piperazine-1-carboxamide]", "IC50": "1 to 10"},
      {"smiles": "COc1cccc(NC(=O)N2CCN(c3ncnc4[nH]c(-c5cccnc5)cc34)CC2)c1", "note": "[P-0231, N-(3-methoxyphenyl)-4-[6-(3-pyridyl)-7H-pyrrolo[2,3-d]pyrimidin-4-yl]piperazine-1-carboxamide]", "IC50": "1 to 10"},
      {"smiles": "COc1cccc(NC(=O)N2CCN(c3ncnc4[nH]c(-c5ccccc5)cc34)CC2)c1", "note": "[P-0238, N-(3-methoxyphenyl)-4-(6-phenyl-7H-pyrrolo[2,3-d]pyrimidin-4-yl)piperazine-1-carboxamide]", "IC50": "10 to 200"},
      {"smiles": "COc1cc2ncnc(-c3ccc(NS(C)(=O)=O)c(F)c3)c2cc1OC", "note": "[P-0272, N-[4-(6,7-dimethoxyquinazolin-4-yl)-2-fluoro-phenyl]methanesulfonamide]", "IC50": "0.0001 to 1"},
      {"smiles": "COc1ccc(S(=O)(=O)Nc2ccc(-c3ncnc4cc(OC)c(OC)cc34)cc2F)cc1", "note": "[P-0273, N-[4-(6,7-dimethoxyquinazolin-4-yl)-2-fluoro-phenyl]-4-methoxy-benzenesulfonamide]", "IC50": "0.0001 to 1"},
      {"smiles": "COc1cc2ncnc(-c3ccc(NS(=O)(=O)N4CCCC4)c(F)c3)c2cc1OC", "note": "[P-0274, N-[4-(6,7-dimethoxyquinazolin-4-yl)-2-fluoro-phenyl]pyrrolidine-1-sulfonamide]", "IC50": "1 to 10"},
      {"smiles": "CCCS(=O)(=O)Nc1ccc(-c2ncnc3cc(OC)c(OC)cc23)cc1F", "note": "[P-0275, N-[4-(6,7-dimethoxyquinazolin-4-yl)-2-fluoro-phenyl]propane-1-sulfonamide]", "IC50": "1 to 10"},
      {"smiles": "Cc1cc2c(-c3ccc(NS(=O)(=O)c4ccc(C(C)C)cc4)cc3)ncnc2[nH]1", "note": "[P-0306, 4-isopropyl-N-[4-(6-methyl-7H-pyrrolo[2,3-d]pyrimidin-4-yl)phenyl]benzenesulfonamide]", "IC50": "1 to 10"},
      {"smiles": "Cc1cc2c(-c3ccc(NS(=O)(=O)c4ccc(C(F)(F)F)cn4)cc3)ncnc2[nH]1", "note": "[P-0312, N-[4-(6-methyl-7H-pyrrolo[2,3-d]pyrimidin-4-yl)phenyl]-5-(trifluoromethyl)pyridine-2-sulfonamide]", "IC50": "1 to 10"},
      {"smiles": "Cc1cc2c(-c3ccc(NS(=O)(=O)c4ccc(Cl)c(Cl)c4)cc3)ncnc2[nH]1", "note": "[P-0316, 3,4-dichloro-N-[4-(6-methyl-7H-pyrrolo[2,3-d]pyrimidin-4-yl)phenyl]benzenesulfonamide]", "IC50": "1 to 10"},
      {"smiles": "O=S(=O)(Nc1ccc(-c2ncnc3[nH]c(-c4ccc(F)cc4F)cc23)c(F)c1)c1ccc(F)cc1", "note": "[P-0332, N-[4-[6-(2,4-difluorophenyl)-7H-pyrrolo[2,3-d]pyrimidin-4-yl]-3-fluoro-phenyl]-4-fluoro-benzenesulfonamide]", "IC50": "0.0001 to 1"},
      {"smiles": "Nc1ccc(-c2ncnc3[nH]c(-c4ccc(F)cc4F)cc23)c(F)c1", "note": "[P-0341, 4-[6-(2,4-difluorophenyl)-7H-pyrrolo[2,3-d]pyrimidin-4-yl]-3-fluoro-aniline]", "IC50": "0.0001 to 1"},
      {"smiles": "CS(=O)(=O)Nc1ccccc1-c1ncnc2[nH]c(-c3ccc(F)cc3)cc12", "note": "[P-0375, N-[2-[6-(4-fluorophenyl)-7H-pyrrolo[2,3-d]pyrimidin-4-yl]phenyl]methanesulfonamide]", "IC50": "10 to 200"}
    ]}
  ]
}
